Starred links: 1 amine or outer side, 2 acyl side, 3 side chain; linkers in the order of their positions; H or OH if unused. Non-standard residues stand in square brackets, D forms with d. Groups on a side chain read outwards from the residue. No end group written: not given here. *: point of attachment. C18 diacid = O=C(O)CCCCCCCCCCCCCCCCC(=O)*; γGlu = O=C(O)[C@H](CCC(=O)[*:2])N[*:1]; αMe4Pal = C[C@](N)(Cc1ccncc1)C(=O)O; 4Pal = N[C@@H](Cc1ccncc1)C(=O)O; αMeL = CC(C)C[C@](C)(N)C(=O)O; Orn = NCCC[C@H](N)C(=O)O; Dab = NCC[C@H](N)C(=O)O; AEEA = NCCOCCOCC(=O)O; Aib = CC(C)(N)C(=O)O
Assays:
hGIPR [1] = target: T1, hGIPR (Homo sapiens, UniProt P48546); test: Functional cAMP activity in the presence of 1% HSA; assay type: cell-based; conditions: read-out: cAMP Rel EC50, hGIPR
T1 sequence (P48546 22-466): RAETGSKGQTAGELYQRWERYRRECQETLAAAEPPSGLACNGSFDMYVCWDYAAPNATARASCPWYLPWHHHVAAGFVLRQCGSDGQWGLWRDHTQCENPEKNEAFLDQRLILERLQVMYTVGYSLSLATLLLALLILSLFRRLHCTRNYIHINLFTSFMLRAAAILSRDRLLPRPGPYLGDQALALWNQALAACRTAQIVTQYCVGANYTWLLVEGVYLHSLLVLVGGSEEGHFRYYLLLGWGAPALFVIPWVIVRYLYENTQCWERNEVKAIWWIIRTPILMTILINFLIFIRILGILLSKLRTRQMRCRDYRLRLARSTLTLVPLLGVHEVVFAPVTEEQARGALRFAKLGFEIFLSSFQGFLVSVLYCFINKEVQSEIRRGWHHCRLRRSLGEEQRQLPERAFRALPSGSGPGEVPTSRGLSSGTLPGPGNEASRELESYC

hGLP-1R [2] = target: T2, hGLP-1R (Homo sapiens, UniProt P43220); test: Functional cAMP activity in the presence of 1% HSA; assay type: cell-based; conditions: read-out: cAMP Rel EC50, hGLP-1R
human GcgR = human GcgR (Homo sapiens, UniProt P47871); test: Functional cAMP activity in the presence of 1% HSA; assay type: cell-based; conditions: read-out: cAMP Rel EC50, hGcgR
hGIPR [3] = target: T1, hGIPR; test: Functional cAMP activation in the presence of 0.1% casein (no HSA); assay type: cell-based; conditions: in the presence of 0.1% casein (no HSA); geometric mean; read-out: Relative cAMP EC50, hGIPR;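 for Relative cAMP EC50, hGIPR: intracellular cAMP rise after 30 min at 37 °C read by HTRF against a standard curve, scaled between buffer alone (0%) and top control ligand concentration (100%), four-parameter fit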;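 for Relative cAMP EC50, hGLP-1R: intracellular cAMP rise after 30 min at 37 °C read by HTRF, normalized between buffer only (0%) and maximal control ligand (100%), four-parameter variable-slope fit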;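 for Relative cAMP EC50, hGcgR: intracellular cAMP rise after 30 min at 37 °C, read by HTRF against a cAMP standard curve, scaled from buffer only (0%) to maximal control ligand response (100%)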
hGLP-1R [4] = target: T2, hGLP-1R; test: as above; assay type: cell-based; conditions: in the presence of 0.1% casein (no HSA); geometric mean; read-out: Relative cAMP EC50, hGLP-1R
hGcgR = hGcgR (Homo sapiens, UniProt P47871); test: as above; assay type: cell-based; conditions: in the presence of 0.1% casein (no HSA); geometric mean; read-out: Relative cAMP EC50, hGcgR;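 note: intracellular cAMP rise after 30 min at 37 °C, read by HTRF against a cAMP standard curve, scaled from buffer only (0%) to maximal control ligand response (100%)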
human GLP1-R = human GLP1-R (Homo sapiens, UniProt P43220); test: GLP1-R internalization assay in HEK293 cells; assay type: cell-based; conditions: for EC50: HEK293 cells expressing SNAP-GLP-1R, read-out: GLP1R Internalization EC50; for Internalization % TOP: normalized to maximum concentration of GLP-1 (100%)
[5] = tested on: Intestinal organoid from Göttingen minipig jejunum tissue, 2D monolayer; test: Cell based in vitro permeability (Papp) assay; assay type: in vitro ADME
Method: Intestinal organoid from Göttingen minipig jejunum tissue and its 2D monolayer are generated using the protocol previously described ([…]-Thiele, […].; Wells, J. M., Optimized procedures for generating an enhanced, near physiological 2D culture system from porcine intestinal organoids. […] After 7 days of culture, organoids are dissociated into single cells by TrypLE (GIbco), and the single cell suspension is added in 24-well transparent transwell inserts (0.3 cm^2, Falcon, BD). […] Samples from the basal compartment are collected at 20 min in the presence of C10. Peptide concentrations in the apical and basal compartments are measured by LC/MS, and the apparent permeability coefficient (Papp) is calculated as previously described (Twarog, C.; Liu, K.; O'Brien, P. J.; Dawson, […] head-to-head Caco-2 assay comparison of the mechanisms of action of the intestinal permeation enhancers: SNAC and sodium caprate (C10).

Sequence of human GcgR (P47871 26-477): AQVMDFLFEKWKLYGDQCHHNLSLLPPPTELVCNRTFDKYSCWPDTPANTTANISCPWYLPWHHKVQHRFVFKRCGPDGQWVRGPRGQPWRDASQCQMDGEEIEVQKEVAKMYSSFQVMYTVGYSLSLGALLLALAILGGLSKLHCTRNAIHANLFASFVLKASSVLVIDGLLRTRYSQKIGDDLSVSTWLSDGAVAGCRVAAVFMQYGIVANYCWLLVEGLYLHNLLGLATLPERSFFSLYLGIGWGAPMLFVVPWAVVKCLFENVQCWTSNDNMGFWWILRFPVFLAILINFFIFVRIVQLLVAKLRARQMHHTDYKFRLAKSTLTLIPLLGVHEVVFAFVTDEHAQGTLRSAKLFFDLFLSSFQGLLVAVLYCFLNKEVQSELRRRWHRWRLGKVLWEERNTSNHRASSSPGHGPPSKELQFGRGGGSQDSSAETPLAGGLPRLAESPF
Sequence of hGcgR (P47871 26-477): as above
Sequence of human GLP1-R (P43220 24-463): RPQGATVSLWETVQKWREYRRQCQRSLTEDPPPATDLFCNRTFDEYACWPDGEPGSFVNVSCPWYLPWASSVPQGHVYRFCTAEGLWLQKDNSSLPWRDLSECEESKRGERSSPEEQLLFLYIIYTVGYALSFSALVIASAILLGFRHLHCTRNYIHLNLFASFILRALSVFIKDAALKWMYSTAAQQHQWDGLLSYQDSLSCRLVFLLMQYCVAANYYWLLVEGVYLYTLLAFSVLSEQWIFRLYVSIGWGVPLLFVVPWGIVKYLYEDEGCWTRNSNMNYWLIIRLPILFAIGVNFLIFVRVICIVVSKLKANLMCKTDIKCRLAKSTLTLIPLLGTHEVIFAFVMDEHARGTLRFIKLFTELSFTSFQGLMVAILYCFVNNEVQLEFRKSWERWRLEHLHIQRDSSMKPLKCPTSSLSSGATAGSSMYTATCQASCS
T2 sequence (P43220 24-463): as above

Compound | EC50 (hGIPR [1]) [nM] | EC50 (hGLP-1R [2]) [nM] | EC50 (human GcgR) [nM] | EC50 (hGIPR [3]) [nM] | EC50 (hGLP-1R [4]) [nM] | EC50 (hGcgR) [nM] | EC50 (human GLP1-R) [nM] | Internalization % TOP (human GLP1-R) [%] | Relative Papp (Compared to internal standard) [5]
CC[C@H](C)[C@H](NC(=O)[C@H](Cc1ccccc1)NC(=O)[C@H](C)NC(=O)C(C)(C)NC(=O)[C@H](CCC(N)=O)NC(=O)[C@H](C)NC(=O)[C@H](CCCCNC(=O)COCCOCCNC(=O)CC[C@H](NC(=O)CCCCCCCCCCCCCCCCC(=O)O)C(=O)O)NC(=O)[C@H](CCCCN)NC(=O)[C@H](CC(=O)O)NC(=O)[C@H](CC(C)C)NC(=O)[C@](C)(CC(C)C)NC(=O)[C@H](CCCN)NC(=O)[C@H](CO)NC(=O)[C@H](Cc1ccccc1)NC(=O)[C@H](CC(=O)O)NC(=O)[C@H](CO)NC(=O)[C@@H](NC(=O)[C@H](Cc1ccccc1)NC(=O)[C@@H](NC(=O)CNC(=O)[C@H](CCC(N)=O)NC(=O)C(C)(C)NC(=O)[C@@H](N)Cc1ccc(O)cc1)[C@@H](C)O)[C@@H](C)O)C(=O)N[C@@H](CCC(=O)O)C(=O)N[C@@H](Cc1c[nH]c2ccccc12)C(=O)N[C@@H](CC(C)C)C(=O)N[C@@H](CC(C)C)C(=O)N[C@@H](CCC(=O)O)C(=O)NCC(=O)NCC(=O)N1CCC[C@H]1C(=O)N[C@@H](CO)C(=O)N[C@@H](CO)C(=O)NCC(=O)N[C@@H](C)C(=O)N1CCC[C@H]1C(=O)N1CCC[C@H]1C(=O)N1CCC[C@H]1C(=O)N[C@@H](CO)C(=O)NCC(=O)N[C@@H](CCC(=O)O)C(N)=O [Example 119] | 19.7 | 387 | 839 | 0.179 | 3.67 | 5.6 | 73.5 | 43.4 | 0.15
H-Y[Aib]QGTFTSDFS[Orn][αMeL]LDKK([AEEA-AEEA-γGlu-C18 diacid])AQ[Aib]AFIEYLLE[Aib]G[4Pal]SSGAPPPSGE-NH2 [Example 189] | 22.2 | 423 | 853 | 0.0695 | 4.46 | 6.28 | 103 | 45.8 | 0.17
H-Y[Aib]QGTFTSDYSR[αMeL]LDKK([AEEA-γGlu-C18 diacid])AQ[Aib]AFIEYLLEGGESSGAPPPSGS-NH2 [Example 361] | 46.3 | 376 | 987 | 0.214 | 2.08 | 2.73 | 50.4 | 73 | 0.10
H-Y[Aib]QGTFTSDFS[Orn][αMeL]LDKK([AEEA-γGlu-C18 diacid])AQ[Aib]AFIEYLLE[dA]GPSSGAPPPSGS-NH2 [Example 209] | 23.3 | 276 | 433 | 0.129 | 1.78 | 3.08 | 83.1 | 41.2 | 0.08
H-Y[Aib]QGTFTSD[4Pal]SR[αMeL]LDKK([AEEA-γGlu-C18 diacid])AQ[αMe4Pal]AFIEYLIE[Aib]GESSGAPPPSGE-NH2 [Example 225] | 40.2 | 438 | 561 | 0.213 | 2.44 | 2.36 | 26 | 56.7 | 0.48
H-Y[Aib]QGTFTSDFS[Orn][αMeL]LDKK([AEEA-γGlu-C18 diacid])AQ[Aib]AFIEWLLEGGSSSGAPPPSGT-NH2 [Example 174] | 20.8 | 208 | 307 | 0.198 | 2.33 | 4.24 | 123 | 52.8 | 0.12
H-Y[Aib]QGTFTSDFS[Orn][αMeL]LDKK([AEEA-γGlu-C18 diacid])AQ[Aib]AFIEYLLE[dA]GPSS[Aib]APPPSGT-NH2 [Example 214] | 15.1 | 186 | 302 | 0.103 | 1.22 | 2.49 | 50.1 | 41.7 | 0.07
H-Y[Aib]QGTFTSD[4Pal]S[Orn][αMeL]LDKK([AEEA-γGlu-C18 diacid])AQ[Aib]AFIEYLLAGGPSSGEPPPSGS-NH2 [Example 154] | 29.7 | 569 | 1040 | 0.227 | 4.94 | 8.72 | 47.7 | 65.9 | 0.12
Y[Aib]QGTFTSDFS[Orn][αMeL]LDKK([AEEA-AEEA-γGlu-C18 diacid])AQ[Aib]AFIEYLLE[dA]GPSSGEPPPSGS-NH2 [Example 155] | 18.9 | 503 | 1310 | 0.177 | 2.98 | 5.68 | 85.1 | 54.5 | 0.07
H-Y[Aib]QGTFTSDFS[Orn][αMeL]LDKK([AEEA-γGlu-C18 diacid])AQ[Aib]AFIEYLLE[dA]GPSSGAPPPSG[4Pal]-NH2 [Example 211] | 20.6 | 234 | 370 | 0.116 | 1.23 | 2.05 | 57.4 | 26.9 | 0.06
H-Y[Aib]QGTFTSDFS[Orn][αMeL]LDKK([AEEA-γGlu-C18 diacid])AQ[Aib]AFIEYLLE[Aib]G[4Pal]SSGAPPPSGS-NH2 [Example 242] | 5.94 | 242 | 484 | 0.0916 | 3.42 | 3.5 | 56 | 38.2 | 0.07
H-Y[Aib]QGTFTSDFS[Orn][αMeL]LDKK([AEEA-AEEA-γGlu-C18 diacid])AQ[Aib]AFIEYLLE[Aib]GHSSGAPPPSGE-NH2 [Example 186] | 18 | 690 | 1280 | 0.107 | 5.26 | 4.67 | 124 | 41.1 | 0.10
H-Y[Aib]QGTFTSD[4Pal]SR[αMeL]LDKK([AEEA-γGlu-C18 diacid])AQ[Aib]AFIEYLIE[Aib]GESSGAPPPSGS-NH2 [Example 187] | 15.6 | 178 | 2970 | 0.111 | 1.11 | 14.8 | 17.2 | 57 | 0.48
H-Y[Aib]QGTFTSD[4Pal]S[Dab][αMeL]LDKK([AEEA-γGlu-C18 diacid])AQ[Aib]AFIEYLIE[Aib]GESSGAPPPSGS-NH2 [Example 188] | 43.8 | 436 | 2920 | 0.193 | 3.43 | 10.8 | 44.7 | 40.2 | 0.46

Source: patent publication US20240270821A1, “GIP/GLP1/GCG TRI-RECEPTOR AGONISTS AND USES THEREOF” (priority 2023, published 2024)
